Experimental findings from ChEMBL document CHEMBL4330073, “Discovery and development of small molecule modulators targeting glutamine metabolism” (Eur J Med Chem, 2019) are described below.

Usually IC50 stands for the point on the concentration scale where inhibition reaches its midpoint. As a reminder, the inhibition is the share of the control response that was lost under treatment.

For one assay, the target named is T1, Glutaminase kidney isoform, mitochondrial (Homo sapiens, UniProt O94925).
T1 sequence (O94925 whole entry): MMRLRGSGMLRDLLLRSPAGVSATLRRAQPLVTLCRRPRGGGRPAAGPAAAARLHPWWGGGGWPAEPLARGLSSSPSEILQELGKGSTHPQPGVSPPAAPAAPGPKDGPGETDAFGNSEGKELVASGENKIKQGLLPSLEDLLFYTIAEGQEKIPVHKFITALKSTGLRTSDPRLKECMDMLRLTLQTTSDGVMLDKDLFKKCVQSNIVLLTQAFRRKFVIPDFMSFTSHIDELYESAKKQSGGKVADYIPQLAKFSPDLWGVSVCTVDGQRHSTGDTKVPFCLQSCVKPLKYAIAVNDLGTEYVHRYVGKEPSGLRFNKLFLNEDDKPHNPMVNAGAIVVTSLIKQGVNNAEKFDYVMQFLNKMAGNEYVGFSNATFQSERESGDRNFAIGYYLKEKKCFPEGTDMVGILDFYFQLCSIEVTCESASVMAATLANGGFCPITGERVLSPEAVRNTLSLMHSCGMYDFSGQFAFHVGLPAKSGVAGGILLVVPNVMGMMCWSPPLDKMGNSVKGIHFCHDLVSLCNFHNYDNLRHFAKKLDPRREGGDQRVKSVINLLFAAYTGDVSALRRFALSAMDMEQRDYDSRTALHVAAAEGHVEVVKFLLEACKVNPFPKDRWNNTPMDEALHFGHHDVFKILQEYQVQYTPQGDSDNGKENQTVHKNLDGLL
The assay is described as follows: Inhibition of recombinant GAC (unknown origin) after 15 mins in presence of NADPH by glutamate oxidase coupled spectrophotometric analysis.
On to `O=C(Cc1cccc(OC(F)(F)F)c1)Nc1ccc(CCCCc2nnc(NC(=O)Cc3ccccn3)s2)cn1`, for which the IC50 lay within 50 to 100 nM.

A further assay deals with T1, Glutaminase kidney isoform, mitochondrial. Description: Inhibition of human GAC after 10 mins by glutamate oxidase coupled Amplex UltraRed dye based assay.
Consider `O=C(NCC1CCCCC1)c1cn(CCCCn2cc(C(=O)NCC3CCCCC3)nn2)nn1`, for which the IC50 was over 500 nM.

As for `CNC(=O)c1cn(CCCCc2ccc(C(=O)NCc3ccccc3)nn2)nn1`, the IC50 is under 100 nM. The same measure, in the same setting: as for `O=C(Cc1ccccc1)Nc1nnc(CCCCn2cc(C(=O)NCc3ccccc3)nn2)s1`, the figure is under 100 nM; as for `O=C(NCc1ccccc1)c1cn(CCCCn2cc(C(=O)NCc3cccc(C(F)(F)F)n3)nn2)nn1`, 100 to 500 nM; as for `O=C(NCc1cccc(C(F)(F)F)c1)c1cn(CCCCn2cc(C(=O)NCc3cccc(C(F)(F)F)n3)nn2)nn1`, under 100 nM.

A further assay concerns the target T2, Cystine/glutamate transporter (Homo sapiens, UniProt Q9UPY5).
T2 sequence (Q9UPY5 whole entry): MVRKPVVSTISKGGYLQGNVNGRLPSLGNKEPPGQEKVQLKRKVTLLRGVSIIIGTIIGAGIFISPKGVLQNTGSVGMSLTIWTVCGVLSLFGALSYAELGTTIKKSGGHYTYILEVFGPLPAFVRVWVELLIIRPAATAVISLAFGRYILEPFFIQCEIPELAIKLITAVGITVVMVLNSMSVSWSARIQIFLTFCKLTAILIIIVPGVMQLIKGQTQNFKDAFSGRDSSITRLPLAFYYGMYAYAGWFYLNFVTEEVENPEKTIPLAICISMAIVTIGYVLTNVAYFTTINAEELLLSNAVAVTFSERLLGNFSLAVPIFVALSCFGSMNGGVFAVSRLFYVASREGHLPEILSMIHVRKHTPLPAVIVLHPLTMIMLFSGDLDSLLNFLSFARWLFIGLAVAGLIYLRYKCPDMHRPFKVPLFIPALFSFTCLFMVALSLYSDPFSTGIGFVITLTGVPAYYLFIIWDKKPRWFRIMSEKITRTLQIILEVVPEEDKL
Description: Inhibition of xCT-mediated cystein/glutamate transporter (unknown origin) assessed as reduction in L-[14C]cyctein uptake.
For `O=C(O)c1cc(C#Cc2ccc(S(=O)(=O)Nc3ccccn3)cc2)ccc1O`, the concentration for half-maximal inhibition (IC50) was 70000 nM.

As for `O=C(O)c1cc(/N=N/c2ccc(S(=O)(=O)Nc3ccccn3)cc2)ccc1O` [SULFASALAZINE], the IC50 is 160 to 30000 nM.

As to `O=C(O)c1cc(/C=C/c2ccc(S(=O)(=O)Nc3ccccn3)cc2)ccc1O`, the IC50 was 30000 nM.

The next assay has as its target T1, Glutaminase kidney isoform, mitochondrial. Description: Inhibition of GAC (unknown origin).
With `O=C(Cc1ccccc1)Nc1nnc([C@H]2CC[C@H](c3nnc(NC(=O)Cc4ccccc4)s3)C2)s1` (racemic), the IC50 was in the range of 100 to 500 nM.

As for `O=C(Cc1ccccc1)Nc1nnc([C@H]2CCC[C@H](c3nnc(NC(=O)Cc4ccccc4)s3)C2)s1` (racemic), the IC50 was under 100 nM. `O=C(Cc1ccccc1)Nc1ccn(CCCCn2ccc(NC(=O)Cc3ccccc3)nc2=O)c(=O)n1` came in with an IC50 of over 500 nM. The same measure, in the same setting: the value for `O=C(Cc1ccccc1)Nc1nnc(CCCCc2cc3cc(Cc4ccccc4)[nH]c3nn2)s1` was under 100 nM. `O=C(Cc1ccccc1)Nc1ccn(CCCCc2ccc(NC(=O)Cc3cccc(OC(F)(F)F)c3)nn2)c(=O)c1` registered an IC50 of under 100 nM. The compound `O=C(Cc1ccccc1)Nc1nnc([C@@H]2CCC[C@H](c3nnc(NC(=O)Cc4ccccc4)s3)C2)s1` yielded an IC50 of 1000 to 2000 nM. In turn, `O=C(Cc1ccccc1)Nc1ccn(CCCCc2nnc(NC(=O)Cc3ccccc3)s2)c(=O)n1` came in with an IC50 of under 100 nM.

In turn, `O=C(Cc1ccccc1)Nc1ccn(CCCCc2cc3cc(Cc4ccccc4)[nH]c3nn2)c(=O)c1` registered an IC50 of under 100 nM. In turn, `O=C(Cc1ccccc1)Nc1nnc(CCCCn2ccc(NC(=O)Cc3ccccc3)c(F)c2=O)s1` yielded an IC50 of under 100 nM. `O=C(NCc1ccccc1)c1cn(CCCCc2cc3cc(Cc4ccccc4)[nH]c3nn2)nn1` returned an IC50 of under 100 nM.

`O=C(Cc1ccccc1)Nc1nnc(CCCCc2cnc3[nH]c(Cc4ccccc4)nc3c2)s1` registered an IC50 of over 500 nM. `O=C(Cc1ccccc1)Nc1nnc(C[C@H]2C[C@@H]2Cc2nnc(NC(=O)Cc3ccccc3)s2)s1` (racemic) yielded an IC50 of 100 to 500 nM. The same measure, in the same setting: the value for `O=C(Cc1ccccc1)Nc1nnc([C@@H]2CC[C@H](c3nnc(NC(=O)Cc4ccccc4)s3)C2)s1` was 1000 to 2000 nM. `O=C(Cc1ccccc1)Nc1ccn(CCCCc2nnc(NC(=O)Cc3ccccc3)s2)c(=O)c1` came in with an IC50 of under 100 nM.

`O=C(Cc1ccccc1)Nc1ccn(CCCCn2cc(C(=O)NCc3cccc(OC(F)(F)F)c3)nn2)c(=O)c1` returned an IC50 of under 100 nM. On the same count and under the same terms, as for `O=C(Cc1ccccc1)Nc1ccn(CCCCn2cc(C(=O)NCc3cccc(OC(F)(F)F)c3)nn2)c(=O)c1F`, the figure is under 100 nM.

The species named for the next assay is Bos taurus. Description: Inhibition of bovine GDH.
For `O=C(O[C@@H]1Cc2c(O)cc(O)cc2O[C@@H]1c1ccc(O)c(O)c1)c1cc(O)c(O)c(O)c1`, the ED50 was found to be 300 nM.

In turn, `O=C(O[C@@H]1Cc2c(O)cc(O)cc2O[C@@H]1c1cc(O)c(O)c(O)c1)c1cc(O)c(O)c(O)c1` showed an ED50 of 300 nM.

Another assay concerns the target T3, Glutaminase kidney isoform, mitochondrial (Homo sapiens) (UniProt O94925).
T3 sequence (whole entry): T1 sequence (O94925 whole entry)
Description: Inhibition of recombinant GAC (unknown origin) at 0.1 uM after 15 mins in presence of NADPH by glutamate oxidase coupled spectrophotometric analysis relative to control.
For the compound `O=C(Cc1cccc(OC(F)(F)F)c1)Nc1cnc(CCCCc2nnc(NC(=O)Cc3ccccn3)s2)cn1`, the inhibition was under 25%.

On to `O=C(Cc1cccc(OC(F)(F)F)c1)Nc1ncc(CCCCc2nnc(NC(=O)Cc3ccccn3)s2)cn1`, for which the inhibition is under 25%.

Take `O=C(Cc1cccc(OC(F)(F)F)c1)Nc1ccc(CCCCc2nnc(NC(=O)Cc3ccccn3)s2)nc1`: the inhibition was under 25%.

Turning to `Cc1nc(NC(=O)Cc2cccc(OC(F)(F)F)c2)ccc1CCCCc1nnc(NC(=O)Cc2ccccn2)s1`, the inhibition is under 25%.
